Results published in PMC4981310 (PLoS Pathogens, 2016).

Columns and labels:
GlgA [1] = target: T1, GlgA (Mycobacterium tuberculosis, UniProt P9WMZ1); format: biochemical
T1 construct: gene glgM

GlgP = GlgP (Mycobacterium tuberculosis, UniProt P9WMW1); format: biochemical
GlgA [2] = target: T1, GlgA; test: biochemical
GlgA [3] = target: T1, GlgA; format: biochemical; remark: listed apart in the source

`Nc1ncnc2c1ncn2[C@@H]1O[C@H](COP(=O)(O)OP(=O)(O)O)[C@@H](O)[C@H]1O` [ADP] was tested, and the “MS of reaction products; coupled assay of ADP release” value (GlgA [1]) was “The next most abundant ion is consistent with the presence of the co-product, ADP”.

`O=P(O)(O)O[C@H]1O[C@H](CO)[C@@H](O)[C@H](O)[C@H]1O` [G1P, glucose 1-phosphate] was tested, and the “1H NMR of glycogen phosphorolysis by recombinant enzyme” value (GlgP) was “recombinant M. tuberculosis GlgP was only capable of forming G1P from glycogen and inorganic phosphate” and the Ki (GlgA [2]) was 895 ± 60 µM.

With `O=P(O)(O)O[C@H]1O[C@H](CO)[C@@H](O[C@H]2O[C@H](CO)[C@@H](O)[C@H](O)[C@H]2O)[C@H](O)[C@H]1O` [M1P, α-maltose 1-phosphate] the “1H NMR and high resolution MS of the enzyme reaction product” value (GlgA [3]) was “Recombinant M. tuberculosis GlgA converts ADP-glucose and G1P to M1P”.
